# From patent publication US6221865A, “Inhibitors of protein isoprenyl transferases” (priority 1998, dated 2001)
# Biological target: T1, protein farnesyltransferase (Rattus norvegicus, UniProt Q02293+Q04631)
# T1 construct: The enzyme is purified according to Reiss, Y., et al., Cell, 62: 81-88 (1990), utilizing steps one through three; from tissue; host or cells: rat brain
# Assay: Inhibition of farnesyltransferase (scintillation proximity assay, rat brain enzyme, biotin-K Ras B fragment substrate)
# Type: biochemical
# Details: for inhibition at 1 µM: read-out: % inhibition of farnesyltransferase at 1 × 10^-6 M; for inhibition at 1 µM / % inhibition of farnesyltransferase at 1 × 10^-6 M: 1 × 10^-6 M (Table 2); for % inhibition of farnesyltransferase at 1 × 10^-7 M / inhibition at 0.1 µM: 1 × 10^-7 M (Table 3); for % inhibition of farnesyltransferase at 1 × 10^-8 M / inhibition at 0.01 µM: 1 × 10^-8 M (Table 4); for inhibition at 0.1 µM: read-out: % inhibition of farnesyltransferase at 1 × 10^-7 M; for inhibition at 0.01 µM: read-out: % inhibition of farnesyltransferase at 1 × 10^-8 M
# Outline: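 Enzyme from rat brain, partly purified (steps one to three), assayed by SPA kit using 0.1 mM final biotin-K Ras B peptide as prenyl acceptor rather than biotin-lamin. Activity given as percent inhibition.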
# T1 sequence (Q02293 whole entry, one chain of several): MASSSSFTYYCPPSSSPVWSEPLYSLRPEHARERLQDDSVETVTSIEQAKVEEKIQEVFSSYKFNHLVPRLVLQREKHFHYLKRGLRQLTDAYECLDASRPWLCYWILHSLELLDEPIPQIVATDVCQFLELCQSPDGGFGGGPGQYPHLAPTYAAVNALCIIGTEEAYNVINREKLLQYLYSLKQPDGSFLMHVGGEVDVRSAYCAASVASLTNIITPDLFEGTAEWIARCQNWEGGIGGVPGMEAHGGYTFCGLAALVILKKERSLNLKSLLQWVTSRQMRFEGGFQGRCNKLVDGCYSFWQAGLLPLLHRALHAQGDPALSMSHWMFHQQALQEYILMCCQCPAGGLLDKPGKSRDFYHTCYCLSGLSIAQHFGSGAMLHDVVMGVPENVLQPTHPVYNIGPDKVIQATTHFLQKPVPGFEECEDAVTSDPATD
smiles,measurement,value
"CSCC[C@H](NC(=O)c1ccc(CN2CCC[C@H]2COCc2ccccc2)cc1-c1ccccc1C)C(=O)O [Example 824, N-[4-(2-benzyloxymethylpyrrolidin-1-ylmethyl)-2-(2-methylphenyl)benzoyl]methionine]",inhibition at 1 µM,90%
CCCCC(OCc1ccc(C(=O)N[C@@H](CCSC)C(=O)[O-])c(-c2ccccc2C)c1)c1ccco1.[Li+] (stereo partly drawn) [Example 825],% inhibition of farnesyltransferase at 1 × 10^-7 M,79%
CCCCC(OCc1ccc(C(=O)N[C@@H](CCSC)C(=O)[O-])c(-c2ccccc2C)c1)c1ccc(-c2ccc(Cl)cc2)o1.[Li+] (stereo partly drawn) [Example 826],% inhibition of farnesyltransferase at 1 × 10^-8 M,92%
CSCC[C@H](NC(=O)c1ccc(COCc2occc2-c2ccc(Cl)cc2)cc1-c1ccccc1C)C(=O)[O-].[Li+] [Example 827],% inhibition of farnesyltransferase at 1 × 10^-8 M,77%
CSCC[C@H](NC(=O)c1ccc(COC(Cc2ccccc2)c2cncs2)cc1-c1ccccc1C)C(=O)[O-].[Li+] (stereo partly drawn) [Example 828],% inhibition of farnesyltransferase at 1 × 10^-8 M,87%
CSCC[C@H](NC(=O)c1ccc(COCc2oc(-c3ccc(Cl)cc3)c(Cl)c2Cl)cc1-c1ccccc1C)C(=O)[O-].[Li+] [Example 829],% inhibition of farnesyltransferase at 1 × 10^-8 M,92%
CSCC[C@H](NC(=O)c1ccc(CN(Cc2ccco2)C(C)C)cc1-c1ccccc1C)C(=O)O [Example 831],% inhibition of farnesyltransferase at 1 × 10^-6 M,92%
CSCC[C@H](NC(=O)c1ccc(CN(Cc2ccoc2)C(C)C)cc1-c1ccccc1C)C(=O)O [Example 832],% inhibition of farnesyltransferase at 1 × 10^-6 M,80%
CSCC[C@H](NC(=O)c1ccc(CN(Cc2ccccc2)Cc2ccccc2)cc1-c1ccccc1)C(=O)O [Example 834],% inhibition of farnesyltransferase at 1 × 10^-6 M,55%
CSCC[C@H](NC(=O)c1ccc(CN(CCc2ccccc2)C(C)C)cc1-c1ccccc1C)C(=O)O [Example 835],% inhibition of farnesyltransferase at 1 × 10^-6 M,96%
CSCC[C@H](NC(=O)c1ccc(CN(Cc2ccccc2)c2cncnc2)cc1-c1ccccc1C)C(=O)O [Example 836],% inhibition of farnesyltransferase at 1 × 10^-8 M,95%
CSCC[C@H](NC(=O)c1ccc(CN(Cc2ccc3c(c2)OCO3)c2cncnc2)cc1-c1ccccc1C)C(=O)O [Example 837],% inhibition of farnesyltransferase at 1 × 10^-8 M,91%
CSCC[C@H](NC(=O)c1ccc(CN(Cc2ccc3c(c2)OCO3)c2cnccn2)cc1-c1ccccc1C)C(=O)O [Example 838],% inhibition of farnesyltransferase at 1 × 10^-8 M,92%
COc1ccccc1N(Cc1ccccc1)Cc1ccc(C(=O)N[C@@H](CCSC)C(=O)O)c(-c2ccccc2C)c1 [Example 839],% inhibition of farnesyltransferase at 1 × 10^-7 M,63%
COc1ccc(N(Cc2ccccc2)Cc2ccc(C(=O)N[C@@H](CCSC)C(=O)O)c(-c3ccccc3C)c2)cc1 [Example 840],% inhibition of farnesyltransferase at 1 × 10^-8 M,73%
CSCC[C@H](NC(=O)c1ccc(CN(Cc2ccccc2)c2cccc([N+](=O)[O-])c2)cc1-c1ccccc1C)C(=O)[O-].[Li+] [Example 842],% inhibition of farnesyltransferase at 1 × 10^-8 M,88%
CSCC[C@H](NC(=O)c1ccc(CN(Cc2ccccc2)c2ccc([N+](=O)[O-])cc2)cc1-c1ccccc1C)C(=O)O [Example 843],% inhibition of farnesyltransferase at 1 × 10^-8 M,96%
CSCC[C@H](NC(=O)c1ccc(CN(Cc2ccccc2)c2ccccc2C(C)=O)cc1-c1ccccc1C)C(=O)O [Example 844],% inhibition of farnesyltransferase at 1 × 10^-6 M,92%
CSCC[C@H](NC(=O)c1ccc(CN(Cc2ccccc2)c2cccc(C(C)=O)c2)cc1-c1ccccc1C)C(=O)O [Example 845],% inhibition of farnesyltransferase at 1 × 10^-8 M,85%
CSCC[C@H](NC(=O)c1ccc(CN(Cc2ccccc2)c2ccccc2Cl)cc1-c1ccccc1C)C(=O)O [Example 846],% inhibition of farnesyltransferase at 1 × 10^-6 M,85%
CSCC[C@H](NC(=O)c1ccc(CN(Cc2ccccc2)c2cccc(Cl)c2)cc1-c1ccccc1C)C(=O)O [Example 847],% inhibition of farnesyltransferase at 1 × 10^-8 M,85%
CSCC[C@H](NC(=O)c1ccc(CN(Cc2ccccc2)c2ccc(Cl)cc2)cc1-c1ccccc1C)C(=O)O [Example 848],% inhibition of farnesyltransferase at 1 × 10^-8 M,87%
CSCC[C@H](NC(=O)c1ccc(CN(Cc2ccccc2)c2ccccc2[N+](=O)[O-])cc1-c1ccccc1C)C(=O)[O-].[Li+] [Example 849],% inhibition of farnesyltransferase at 1 × 10^-7 M,66%
CSCC[C@H](NC(=O)c1ccc(CN(Cc2ccccc2)c2ccccc2SC)cc1-c1ccccc1C)C(=O)[O-].[Li+] [Example 850],% inhibition of farnesyltransferase at 1 × 10^-6 M,90%
CSCC[C@H](NC(=O)c1ccc(CN(Cc2ccccc2)c2cccc(SC)c2)cc1-c1ccccc1C)C(=O)[O-].[Li+] [Example 851],% inhibition of farnesyltransferase at 1 × 10^-8 M,82%
CSCC[C@H](NC(=O)c1ccc(CN(Cc2ccccc2)c2ccc(SC)cc2)cc1-c1ccccc1C)C(=O)[O-].[Li+] [Example 852],% inhibition of farnesyltransferase at 1 × 10^-8 M,79%
CSCC[C@H](NC(=O)c1ccc(CN(Cc2ccccc2)c2ccc(C(F)(F)F)cc2)cc1-c1ccccc1C)C(=O)O [Example 853],% inhibition of farnesyltransferase at 1 × 10^-8 M,85%
"CSCC[C@H](NC(=O)c1ccc(/C=C/c2ccc(Oc3ccccc3Cl)cc2)cc1-c1ccccc1C)C(=O)O [Example 854, N-[4-(2-(4-(2-chlorophenoxy)phenyl)ethen-1-yl)-2-(2-methylphenyl)benzovyl]methionine]",inhibition at 0.1 µM,78%
"CSCC[C@H](NC(=O)c1ccc(CCc2ccc(Oc3ccccc3Cl)cc2)cc1-c1ccccc1C)C(=O)O [Example 855, N-[4-(2-(4-(2-chlorophenoxy)phenyl)ethyl)-2-(2-methylphenyl)benzoyl]methionine]",inhibition at 0.1 µM,92%
"CSCC[C@H](NC(=O)c1ccc(/C=C/c2ccc(Oc3ccccc3[N+](=O)[O-])cc2)cc1-c1ccccc1C)C(=O)O [Example 856, N-[4-(2-(4-(2-nitrophenoxy)phenyl)ethen-1-yl)-2-(2-methylphenyl)benzoyl]methionine]",inhibition at 0.1 µM,97%
"CSCC[C@H](NC(=O)c1ccc(CCc2ccc(Oc3ccccc3N)cc2)cc1-c1ccccc1C)C(=O)O [Example 857, N-[4-(2-(4-(2-aminophenoxy)phenyl)ethyl)-2-(2-methylphenyl)benzoyl]methionine]",inhibition at 0.1 µM,92%
"CSCC[C@H](NC(=O)c1ccc(/C=C/c2ccc(Oc3cccc(Cl)c3)cc2)cc1-c1ccccc1C)C(=O)O [Example 858, N-[4-(2-(4-(3-chlorophenoxy)phenyl)ethen-1-yl)-2-(2-methylphenyl)benzoyl]methionine]",inhibition at 0.01 µM,60%
"CSCC[C@H](NC(=O)c1ccc(CCc2ccc(Oc3cccc(Cl)c3)cc2)cc1-c1ccccc1C)C(=O)O [Example 859, N-[4-(2-(4-(3-chlorophenoxy)phenyl)ethyl)-2-(2-methylphenyl)benzoyl]methionine]",inhibition at 0.1 µM,86%
"CSCC[C@H](NC(=O)c1ccc(CCc2ccc(Oc3ccc(Cl)cc3)cc2)cc1-c1ccccc1C)C(=O)O [Example 860, N-[4-(2-(4-(4-chlorophenoxy)phenyl)ethyl)-2-(2-methylphenyl)benzoyl]methionine]",inhibition at 0.01 µM,85%
"CSCC[C@H](NC(=O)c1ccc(/C=C/c2ccc(Oc3cccc([N+](=O)[O-])c3)cc2)cc1-c1ccccc1C)C(=O)O [Example 861, N-[4-(2-(4-(3-nitrophenoxy)phenyl)ethen-1-yl)-2-(2-methylphenyl)benzoyl]methioziine]",inhibition at 0.1 µM,65%
CSCC[C@H](NC(=O)c1ccc(CNc2ccc(N3CCCCC3)cc2)cc1-c1ccccc1C)C(=O)O [Example 862],% inhibition of farnesyltransferase at 1 × 10^-6 M,95%
CSCC[C@H](NC(=O)c1ccc(CNc2ccc(N3CCOCC3)cc2)cc1-c1ccccc1C)C(=O)O [Example 863],% inhibition of farnesyltransferase at 1 × 10^-7 M,72%
CSCC[C@H](NC(=O)c1ccc(CNc2ccc(Oc3ccccc3)cc2)cc1-c1ccccc1C)C(=O)O [Example 864],% inhibition of farnesyltransferase at 1 × 10^-7 M,84%
"CSCC[C@H](NC(=O)c1ccc(CN2CCN(C(=O)OC(C)(C)C)CC2)cc1-c1ccccc1C)C(=O)O [Example 866, N-[4-(4-t-butoxycarbonylpiperazin-1-ylmethyl)-2-(2-methylphenyl)benzoyl]methionine]",inhibition at 1 µM,62%
"CSCC[C@H](NC(=O)c1ccc(CN2CCN(c3ccccc3)CC2)cc1-c1ccccc1C)C(=O)O [Example 867, N-[4-(4-phenylpiperazin-1-ylmethyl)-2-(2-methylphenyl)benzoyl]methionine]",inhibition at 1 µM,71%
CSCC[C@H](NC(=O)c1ccc(COCc2ccc(-c3ccc(F)cc3)o2)cc1-c1cccc2ccccc12)C(=O)[O-].[Li+] [Example 868],% inhibition of farnesyltransferase at 1 × 10^-6 M,89%
CSCC[C@H](NC(=O)c1ccc(COCc2ccc(-c3ccc(F)cc3)o2)cc1-c1ccc(F)cc1Cl)C(=O)[O-].[Li+] [Example 869],% inhibition of farnesyltransferase at 1 × 10^-7 M,92%
CSCC[C@H](NC(=O)c1ccc(CN(Cc2cncs2)S(=O)(=O)c2ccc(C)cc2)cc1-c1ccccc1C)C(=O)O [Example 877],% inhibition of farnesyltransferase at 1 × 10^-8 M,68%
CSCC[C@H](NC(=O)c1ccc(CN(Cc2cncs2)S(C)(=O)=O)cc1-c1ccccc1C)C(=O)O [Example 878],% inhibition of farnesyltransferase at 1 × 10^-6 M,95%
CSCC[C@H](NC(=O)c1ccc(OCCCc2ccccc2)cc1-c1ccccc1C)C(=O)[O-].[Li+] [Example 879],% inhibition of farnesyltransferase at 1 × 10^-6 M,95%
